The results in this text go back to ChEMBL document CHEMBL5465560, “Selectivity Literature for EUbOPEN Chemogenomic Library” (2024).

Assay [1] concerns the target Ribosomal protein S6 kinase beta-2 (Homo sapiens) (UniProt Q9UBS0). Description: Selectivity interaction (Kinase panel (Z-LYTE Assay)) EUB0001632a RPS6KB2. Particulars: at 10 µM.
Assay [2] concerns the target Serine/threonine-protein kinase MRCK beta (Homo sapiens) (UniProt Q9Y5S2). Particulars: at 10 µM.
Assay [3] deals with NT-3 growth factor receptor (Homo sapiens, UniProt Q16288). Description: Selectivity interaction (KinomeScan (DiscoverX)) EUB0000595a NTRK3. Particulars: at 10 µM.
For assay [4], the target named is Mitogen-activated protein kinase 11 (Homo sapiens) (UniProt Q15759). Description: Selectivity interaction (KinomeScan (DiscoverX)) EUB0001619a MAPK11. Particulars: at 1 µM.
The next assay addresses D(3) dopamine receptor (Homo sapiens, UniProt P35462). Description: Selectivity interaction (Eurofins CEREP Diversity Profile (receptors and ion channels)) EUB0000279b DRD3. Particulars: at 10 µM.
For assay [5], the target named is Serine/threonine-protein kinase 38 (Homo sapiens) (UniProt Q15208). Description: Selectivity interaction (KinomeScan (DiscoverX)) EUB0000666a STK38. Particulars: at 10 µM.
Assay [6] deals with Cyclin-dependent kinase 14 (Homo sapiens) (UniProt O94921). Description: Selectivity interaction (KinomeScan (DiscoverX)) EUB0000607a CDK14. Particulars: at 10 µM.
Assay [7] concerns the target Ephrin type-A receptor 7 (Homo sapiens) (UniProt Q15375). Description: Selectivity interaction (ActivX KiNativ screen (kinase selectivity in THP-1 cell lysates)) EUB0000639a EPHA7. The format is subcellular. Particulars: lysate.
In assay [8] the target is T1, Ankyrin repeat and protein kinase domain-containing protein 1 (Homo sapiens) (UniProt Q8NFD2).
T1 sequence (whole entry): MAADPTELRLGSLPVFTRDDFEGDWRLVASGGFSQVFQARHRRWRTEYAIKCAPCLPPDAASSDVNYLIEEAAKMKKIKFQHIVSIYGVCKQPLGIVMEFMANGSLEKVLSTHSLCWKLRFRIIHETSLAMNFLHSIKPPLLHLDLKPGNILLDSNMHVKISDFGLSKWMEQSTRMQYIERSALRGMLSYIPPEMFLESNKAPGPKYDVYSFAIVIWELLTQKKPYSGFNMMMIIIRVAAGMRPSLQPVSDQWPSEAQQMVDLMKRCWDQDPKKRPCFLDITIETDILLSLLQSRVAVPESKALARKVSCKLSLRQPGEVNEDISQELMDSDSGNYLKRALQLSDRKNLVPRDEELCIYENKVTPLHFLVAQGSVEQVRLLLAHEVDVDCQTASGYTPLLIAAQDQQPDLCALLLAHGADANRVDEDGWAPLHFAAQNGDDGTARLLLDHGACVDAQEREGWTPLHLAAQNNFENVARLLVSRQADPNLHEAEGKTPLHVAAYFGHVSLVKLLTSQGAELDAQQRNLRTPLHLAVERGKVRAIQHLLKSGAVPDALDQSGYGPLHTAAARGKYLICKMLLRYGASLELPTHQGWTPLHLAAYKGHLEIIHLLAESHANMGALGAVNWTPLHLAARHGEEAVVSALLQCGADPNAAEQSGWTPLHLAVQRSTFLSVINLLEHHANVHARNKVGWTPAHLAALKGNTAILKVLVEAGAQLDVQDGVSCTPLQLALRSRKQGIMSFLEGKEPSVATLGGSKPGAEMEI
Description: Selectivity interaction (KinomeScan (DiscoverX)) EUB0001049a ANKK1. Particulars: at 1 µM.

The target in assay [9] is Mitogen-activated protein kinase kinase kinase kinase 5 (Homo sapiens) (UniProt Q9Y4K4). Description: Selectivity interaction (KinomeScan (DiscoverX)) EUB0000655a MAP4K5. Particulars: at 10 µM.
The target of assay [10] is T2, Serine/threonine-protein kinase TNNI3K (Homo sapiens) (UniProt Q59H18).
T2 sequence (whole entry): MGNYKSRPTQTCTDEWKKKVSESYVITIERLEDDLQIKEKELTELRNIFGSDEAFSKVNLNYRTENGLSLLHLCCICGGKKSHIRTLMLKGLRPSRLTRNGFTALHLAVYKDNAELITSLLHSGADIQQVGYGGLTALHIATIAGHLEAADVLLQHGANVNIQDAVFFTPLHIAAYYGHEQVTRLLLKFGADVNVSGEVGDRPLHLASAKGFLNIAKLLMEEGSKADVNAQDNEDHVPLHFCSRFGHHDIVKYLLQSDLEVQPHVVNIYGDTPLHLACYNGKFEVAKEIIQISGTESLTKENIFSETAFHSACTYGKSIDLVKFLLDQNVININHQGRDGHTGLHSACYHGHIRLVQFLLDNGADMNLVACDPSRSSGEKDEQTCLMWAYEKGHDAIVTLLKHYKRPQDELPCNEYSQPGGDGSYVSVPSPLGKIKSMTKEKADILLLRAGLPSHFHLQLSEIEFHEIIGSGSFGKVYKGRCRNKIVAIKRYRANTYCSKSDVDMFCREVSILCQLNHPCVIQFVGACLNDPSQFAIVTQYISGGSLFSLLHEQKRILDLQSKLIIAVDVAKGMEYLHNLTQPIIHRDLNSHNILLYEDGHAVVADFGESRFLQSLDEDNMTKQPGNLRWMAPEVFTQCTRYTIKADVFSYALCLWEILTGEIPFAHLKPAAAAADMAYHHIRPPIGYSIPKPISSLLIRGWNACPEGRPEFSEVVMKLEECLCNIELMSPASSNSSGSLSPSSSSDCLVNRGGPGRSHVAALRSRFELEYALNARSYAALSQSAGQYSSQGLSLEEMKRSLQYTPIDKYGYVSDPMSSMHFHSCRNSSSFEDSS
Description: Selectivity interaction (KinomeScan (DiscoverX)) EUB0000618a TNNI3K. Particulars: at 10 µM.

The target of assay [11] is Mitogen-activated protein kinase 14 (Homo sapiens, UniProt Q16539). Particulars: at 10 µM.
Assay [12] concerns the target T3, Serine/threonine-protein kinase Chk1 (Homo sapiens) (UniProt O14757).
T3 sequence (whole entry): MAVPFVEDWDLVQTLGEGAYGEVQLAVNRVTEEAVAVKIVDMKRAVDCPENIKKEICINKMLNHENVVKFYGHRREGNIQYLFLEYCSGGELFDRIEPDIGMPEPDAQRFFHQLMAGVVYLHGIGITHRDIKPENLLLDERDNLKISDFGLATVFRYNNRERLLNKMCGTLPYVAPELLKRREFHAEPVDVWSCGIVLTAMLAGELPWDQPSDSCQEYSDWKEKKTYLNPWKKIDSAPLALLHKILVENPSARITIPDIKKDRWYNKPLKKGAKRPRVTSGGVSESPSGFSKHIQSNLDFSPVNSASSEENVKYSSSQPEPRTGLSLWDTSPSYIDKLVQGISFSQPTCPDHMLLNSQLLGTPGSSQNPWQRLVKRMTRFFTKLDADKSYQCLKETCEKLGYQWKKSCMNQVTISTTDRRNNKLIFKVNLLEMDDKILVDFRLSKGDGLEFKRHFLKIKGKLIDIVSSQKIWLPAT
Description: Selectivity interaction (Millipore kinase profiler) EUB0000124b CHEK1. Particulars: at 10 µM.

Ephrin type-A receptor 7 (Homo sapiens), sequence (Q15375 28-998 limits assumed): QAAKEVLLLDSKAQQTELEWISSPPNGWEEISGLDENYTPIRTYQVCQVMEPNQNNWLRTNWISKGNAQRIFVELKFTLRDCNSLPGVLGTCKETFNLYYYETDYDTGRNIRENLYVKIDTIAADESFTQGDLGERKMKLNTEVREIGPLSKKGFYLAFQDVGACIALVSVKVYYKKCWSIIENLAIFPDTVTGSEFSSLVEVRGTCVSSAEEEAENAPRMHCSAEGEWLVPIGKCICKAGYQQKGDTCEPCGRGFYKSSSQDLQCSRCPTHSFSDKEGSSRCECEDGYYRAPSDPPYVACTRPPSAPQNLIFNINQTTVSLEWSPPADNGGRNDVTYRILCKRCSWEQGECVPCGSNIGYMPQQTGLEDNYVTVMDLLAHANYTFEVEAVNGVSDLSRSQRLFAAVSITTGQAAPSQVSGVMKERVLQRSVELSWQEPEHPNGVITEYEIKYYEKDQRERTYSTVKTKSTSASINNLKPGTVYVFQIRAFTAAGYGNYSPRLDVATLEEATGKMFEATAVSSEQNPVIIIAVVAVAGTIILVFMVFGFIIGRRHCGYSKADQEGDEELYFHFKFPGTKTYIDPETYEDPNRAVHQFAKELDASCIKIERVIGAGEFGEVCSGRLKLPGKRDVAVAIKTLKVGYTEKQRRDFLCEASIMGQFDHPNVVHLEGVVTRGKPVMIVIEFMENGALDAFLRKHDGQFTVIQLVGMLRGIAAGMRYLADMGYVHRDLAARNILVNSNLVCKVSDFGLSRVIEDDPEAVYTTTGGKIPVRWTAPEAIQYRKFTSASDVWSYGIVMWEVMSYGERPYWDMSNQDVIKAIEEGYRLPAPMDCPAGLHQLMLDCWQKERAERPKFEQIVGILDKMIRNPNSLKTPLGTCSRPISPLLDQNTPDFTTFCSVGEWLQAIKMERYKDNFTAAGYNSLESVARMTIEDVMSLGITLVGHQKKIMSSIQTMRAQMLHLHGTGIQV
Ribosomal protein S6 kinase beta-2 (Homo sapiens), sequence (Q9UBS0 whole entry): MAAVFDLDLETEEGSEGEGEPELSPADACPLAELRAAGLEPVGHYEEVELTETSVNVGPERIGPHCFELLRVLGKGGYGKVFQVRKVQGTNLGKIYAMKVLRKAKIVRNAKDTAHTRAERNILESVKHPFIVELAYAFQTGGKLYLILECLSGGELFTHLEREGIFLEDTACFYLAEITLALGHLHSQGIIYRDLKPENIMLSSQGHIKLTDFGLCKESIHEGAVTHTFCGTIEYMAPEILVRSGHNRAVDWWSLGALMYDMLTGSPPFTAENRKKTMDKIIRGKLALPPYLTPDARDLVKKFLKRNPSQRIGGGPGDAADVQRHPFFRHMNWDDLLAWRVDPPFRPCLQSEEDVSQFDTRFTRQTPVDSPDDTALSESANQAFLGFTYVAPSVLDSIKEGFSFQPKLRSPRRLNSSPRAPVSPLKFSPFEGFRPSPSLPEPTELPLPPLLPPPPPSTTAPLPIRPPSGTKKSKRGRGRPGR
NT-3 growth factor receptor, sequence (Q16288 32-839 limits assumed): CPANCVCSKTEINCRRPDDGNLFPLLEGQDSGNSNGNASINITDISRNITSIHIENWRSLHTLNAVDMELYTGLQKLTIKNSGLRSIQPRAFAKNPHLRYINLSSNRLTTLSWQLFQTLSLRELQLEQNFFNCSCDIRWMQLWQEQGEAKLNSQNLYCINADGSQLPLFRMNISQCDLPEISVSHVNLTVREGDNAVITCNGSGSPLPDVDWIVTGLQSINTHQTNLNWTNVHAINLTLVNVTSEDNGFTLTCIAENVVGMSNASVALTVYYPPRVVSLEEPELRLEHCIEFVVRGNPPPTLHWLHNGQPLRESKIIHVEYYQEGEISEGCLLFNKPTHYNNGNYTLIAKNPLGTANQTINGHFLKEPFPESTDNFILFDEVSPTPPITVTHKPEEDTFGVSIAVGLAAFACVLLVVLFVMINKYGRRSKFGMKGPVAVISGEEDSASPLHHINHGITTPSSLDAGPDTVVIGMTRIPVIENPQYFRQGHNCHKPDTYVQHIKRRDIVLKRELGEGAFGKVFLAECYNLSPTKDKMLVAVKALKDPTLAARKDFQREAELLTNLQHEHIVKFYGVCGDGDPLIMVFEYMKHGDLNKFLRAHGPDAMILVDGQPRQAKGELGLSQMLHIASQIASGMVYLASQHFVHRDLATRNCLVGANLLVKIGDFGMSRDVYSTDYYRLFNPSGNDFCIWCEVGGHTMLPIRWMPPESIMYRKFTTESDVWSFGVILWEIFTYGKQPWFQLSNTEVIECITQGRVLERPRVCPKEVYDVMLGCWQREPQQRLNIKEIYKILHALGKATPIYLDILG
Cyclin-dependent kinase 14 (Homo sapiens), sequence (O94921 whole entry): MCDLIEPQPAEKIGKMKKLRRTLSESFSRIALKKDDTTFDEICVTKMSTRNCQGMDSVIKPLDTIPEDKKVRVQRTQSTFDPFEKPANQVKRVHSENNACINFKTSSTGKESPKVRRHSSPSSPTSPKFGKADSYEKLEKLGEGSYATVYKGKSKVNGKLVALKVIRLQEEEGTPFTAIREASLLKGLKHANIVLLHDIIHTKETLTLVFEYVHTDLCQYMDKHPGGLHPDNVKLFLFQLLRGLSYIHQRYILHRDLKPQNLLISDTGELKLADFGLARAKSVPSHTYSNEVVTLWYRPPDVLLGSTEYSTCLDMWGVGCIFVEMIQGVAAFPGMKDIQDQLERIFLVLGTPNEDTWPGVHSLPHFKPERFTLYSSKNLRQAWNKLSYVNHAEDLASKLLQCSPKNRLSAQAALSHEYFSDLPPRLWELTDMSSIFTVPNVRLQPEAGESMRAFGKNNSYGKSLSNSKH
Mitogen-activated protein kinase 11 (Homo sapiens), sequence (Q15759 whole entry): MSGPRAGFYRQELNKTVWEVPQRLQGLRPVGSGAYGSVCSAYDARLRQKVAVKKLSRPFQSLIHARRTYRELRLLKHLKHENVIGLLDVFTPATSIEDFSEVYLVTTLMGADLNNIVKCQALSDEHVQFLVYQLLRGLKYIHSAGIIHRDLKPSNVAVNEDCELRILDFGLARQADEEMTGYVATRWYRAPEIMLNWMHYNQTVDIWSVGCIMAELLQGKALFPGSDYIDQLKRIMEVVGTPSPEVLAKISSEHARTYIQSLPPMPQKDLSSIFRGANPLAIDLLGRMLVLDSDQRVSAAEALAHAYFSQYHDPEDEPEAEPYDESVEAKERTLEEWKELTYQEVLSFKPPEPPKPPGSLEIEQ
D(3) dopamine receptor, sequence (P35462 whole entry): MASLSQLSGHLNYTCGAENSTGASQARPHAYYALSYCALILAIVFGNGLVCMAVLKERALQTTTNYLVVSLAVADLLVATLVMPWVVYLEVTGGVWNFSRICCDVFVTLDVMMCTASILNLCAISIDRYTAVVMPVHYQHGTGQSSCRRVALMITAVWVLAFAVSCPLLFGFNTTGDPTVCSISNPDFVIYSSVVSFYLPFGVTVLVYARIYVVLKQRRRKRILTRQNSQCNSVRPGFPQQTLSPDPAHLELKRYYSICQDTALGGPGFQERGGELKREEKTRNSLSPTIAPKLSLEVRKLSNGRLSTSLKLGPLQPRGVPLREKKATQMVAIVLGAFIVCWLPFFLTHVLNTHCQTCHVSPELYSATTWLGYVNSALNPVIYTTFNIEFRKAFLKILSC
Mitogen-activated protein kinase kinase kinase kinase 5 (Homo sapiens), sequence (Q9Y4K4 whole entry, looked up): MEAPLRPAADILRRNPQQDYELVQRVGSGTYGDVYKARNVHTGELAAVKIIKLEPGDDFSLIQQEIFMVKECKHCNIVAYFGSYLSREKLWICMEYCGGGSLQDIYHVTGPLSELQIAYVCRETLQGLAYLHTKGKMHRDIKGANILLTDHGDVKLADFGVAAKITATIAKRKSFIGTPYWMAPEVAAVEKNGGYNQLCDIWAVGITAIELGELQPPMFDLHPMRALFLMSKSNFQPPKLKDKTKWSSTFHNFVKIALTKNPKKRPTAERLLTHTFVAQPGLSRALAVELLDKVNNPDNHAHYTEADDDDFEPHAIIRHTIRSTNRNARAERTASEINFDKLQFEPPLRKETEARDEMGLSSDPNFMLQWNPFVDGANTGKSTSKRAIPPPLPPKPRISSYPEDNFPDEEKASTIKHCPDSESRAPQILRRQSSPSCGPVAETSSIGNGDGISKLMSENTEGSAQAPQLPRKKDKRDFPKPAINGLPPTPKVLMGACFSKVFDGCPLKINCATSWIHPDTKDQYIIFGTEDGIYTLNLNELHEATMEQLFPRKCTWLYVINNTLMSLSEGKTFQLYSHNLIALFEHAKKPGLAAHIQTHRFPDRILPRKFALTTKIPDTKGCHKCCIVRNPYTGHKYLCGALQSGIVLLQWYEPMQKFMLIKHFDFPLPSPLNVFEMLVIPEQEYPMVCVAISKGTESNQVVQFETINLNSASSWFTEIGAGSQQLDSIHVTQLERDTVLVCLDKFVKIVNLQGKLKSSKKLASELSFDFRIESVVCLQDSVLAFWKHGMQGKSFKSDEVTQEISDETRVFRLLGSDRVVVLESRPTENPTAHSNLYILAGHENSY
Serine/threonine-protein kinase 38 (Homo sapiens), sequence (Q15208 2-465 limits assumed): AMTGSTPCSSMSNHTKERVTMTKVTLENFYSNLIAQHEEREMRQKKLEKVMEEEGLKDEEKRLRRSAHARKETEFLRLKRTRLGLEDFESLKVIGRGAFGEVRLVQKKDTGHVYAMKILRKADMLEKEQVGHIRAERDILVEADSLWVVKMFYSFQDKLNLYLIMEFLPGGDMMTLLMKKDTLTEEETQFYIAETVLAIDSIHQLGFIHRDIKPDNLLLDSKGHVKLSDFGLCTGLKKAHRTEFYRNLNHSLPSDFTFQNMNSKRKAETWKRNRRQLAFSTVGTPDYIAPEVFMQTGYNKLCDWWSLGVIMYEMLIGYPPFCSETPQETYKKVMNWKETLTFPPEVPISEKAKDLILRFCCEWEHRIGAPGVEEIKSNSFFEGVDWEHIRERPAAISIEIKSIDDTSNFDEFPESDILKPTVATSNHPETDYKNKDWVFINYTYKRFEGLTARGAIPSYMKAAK

`Cn1cc(-n2cnc3c(NCc4nc5cc(Cl)c(Cl)cc5[nH]4)nc(N4CCOCC4)nc32)cn1` had a % of control in assay [1] of 3.53%. On to `COCC(=O)NC/C=C/c1ccc2ncnc(Nc3ccc(Oc4ccc(C)nc4)c(C)c3)c2c1` [CP-724714], for which the % of control was 96% in assay [2] and 93% in assay [3]. In assay [4], `N#Cc1cccc(-c2c[nH]c3ncnc(N4CCOCC4)c23)c1` yielded a % of control of 100%. On D(3) dopamine receptor, `CC(=O)c1cc(-c2ccccc2OCC2CC2)c2ncccn12` showed a % of control of 81%. In turn, `O=C(NOC[C@H](O)CO)c1ccc(F)c(F)c1Nc1ccc(I)cc1F` came in with a % of control in [5] of 100%. In the case of `CNC(=O)Nc1ccc(-c2nc(N3CC4CCC(C3)O4)c3cnn(C4CCC5(CC4)OCCO5)c3n2)cc1`, the % of control in assay [6] turned out to be 94%. As for `CC[C@@H]1[C@H](F)C(=O)N[C@@H]1COc1nccc2cc(C(N)=O)c(OC)cc12` [ZIMLOVISERTIB], the % of inhibition is -8.6% in assay [7] (at 0.01 µM); 21.7% in assay [7] (at 0.04 µM); 20.8% in [7] (at 0.2 µM); -6.5% in assay [7] (at 1 µM); 20.6% in assay [7] (at 5 µM). The compound `COc1cc(Nc2nc(C)cc(-c3cnn4nc(OC)ccc34)n2)cc(C(F)(F)F)c1` showed a % of control in [8] of 70%.

`CN(C)CCOc1ccc(-c2nc(-c3ccncc3)c(-c3ccc4c(c3)CC/C4=N\O)[nH]2)cc1`: the % of control in assay [9] was determined as 97%. Consider `O[C@H]1CC[C@H](Nc2ncc3nc(Nc4c(F)cc(F)cc4F)n([C@H]4CCOC4)c3n2)CC1`, for which the % of control in [10] worked out at 100%; in assay [11] it was 3.4%. In assay [12], `CC(=O)Nc1cccc(-n2c(=O)n(C3CC3)c(=O)c3c(Nc4ccc(I)cc4F)n(C)c(=O)c(C)c32)c1` registered a % of control of 113%.
